Source: patent US9502658B2, “Fullerene derivatives and related materials, methods, and devices” (Nano-C, Inc., priority 2013, dated 2016)
In brackets after ≈: the same amount, converted by molar mass.

Test: Solubility in o-dichlorobenzene by UV-vis absorbance at 360 nm
Details: for solubility in o-dichlorobenzene: room temperature (about 22° C.)

solubility in common organic solvents (in words, compared to the fullerenes according to the invention)	Structure (SMILES)	solubility in o-dichlorobenzene [mg/mL]
	CCCCC1c2ccccc2C(CCCC)C23c4c5c6c7c8c9c(c%10c%11c2c2c4c4c%12c5c5c6c6c8c8c%13c9c9c%10c%10c%11c%11c2c2c4c4c%12c%12c5c5c6c8c6c8c%13c9c9c%10c%10c%11c2c2c4c4c%12c5c6c5c8c9c%10c2c45)C713 (centres unmarked) [Fullerene 3]	9.3 (≈ 9.92 mM)
	CCCCCCC1c2ccccc2C(CCCCCC)C23c4c5c6c7c8c9c(c%10c%11c2c2c4c4c%12c5c5c6c6c8c8c%13c9c9c%10c%10c%11c%11c2c2c4c4c%12c%12c5c5c6c8c6c8c%13c9c9c%10c%10c%11c2c2c4c4c%12c5c6c5c8c9c%10c2c45)C713 (centres unmarked) [Fullerene 4]	45 (≈ 45.3 mM)
	CCCCCCCC1c2ccccc2C(CCCCCCC)C23c4c5c6c7c8c9c(c%10c%11c2c2c4c4c%12c5c5c6c6c8c8c%13c9c9c%10c%10c%11c%11c2c2c4c4c%12c%12c5c5c6c8c6c8c%13c9c9c%10c%10c%11c2c2c4c4c%12c5c6c5c8c9c%10c2c45)C713 (centres unmarked) [Fullerene 5]	20 (≈ 19.6 mM)
lower solubility	c1ccc2c(c1)CC13c4c5c6c7c8c9c(c%10c%11c1c1c%12c4c4c%13c5c5c7c7c8c8c%14c9c%10c9c%10c%11c1c1c%11c%12c4c4c%12c%13c5c5c7c7c8c8c%14c9c9c%10c1c1c%11c4c4c%12c5c7c5c8c9c1c45)C63C2 (centres unmarked) [oQDM-C60, reference compound]	5.8 (≈ 7.03 mM)
